Measured values: the NIST ThermoML archive (doi:10.1021/je800105r)
± gives the expanded uncertainty stated by the source.

Experiment: activity coefficient (dimensionless); of the first substance listed, at infinite dilution; xn = mol fraction of the nth substance listed
Conditions: Liquid, Chromatography, x1 = 0

Row | SMILES | activity coefficient (303.15 K) | activity coefficient (308.15 K) | activity coefficient (313.15 K) | activity coefficient (318.15 K)
1 | C=CCCCCC [1-heptene] + CCCCCCCCCCCCCC[P+](CCCCCC)(CCCCCC)CCCCCC.O=S(=O)([N-]S(=O)(=O)C(F)(F)F)C(F)(F)F | 1 ± 0.06 | 1.02 ± 0.06 | 1.04 ± 0.07 | 1.09 ± 0.07
2 | C#CCCCCC [1-heptyne] + CCCCCCCCCCCCCC[P+](CCCCCC)(CCCCCC)CCCCCC.O=S(=O)([N-]S(=O)(=O)C(F)(F)F)C(F)(F)F | 0.59 ± 0.04 | 0.63 ± 0.04 | 0.66 ± 0.05 | 0.7 ± 0.05
3 | C#CCCCC [1-hexyne] + CCCCCCCCCCCCCC[P+](CCCCCC)(CCCCCC)CCCCCC.O=S(=O)([N-]S(=O)(=O)C(F)(F)F)C(F)(F)F | 0.66 ± 0.05 | 0.68 ± 0.05 | 0.71 ± 0.05 | 0.74 ± 0.05
4 | C#CCCCCCC [1-octyne] + CCCCCCCCCCCCCC[P+](CCCCCC)(CCCCCC)CCCCCC.O=S(=O)([N-]S(=O)(=O)C(F)(F)F)C(F)(F)F | 0.53 ± 0.04 | 0.55 ± 0.04 | 0.58 ± 0.04 | 0.63 ± 0.04
5 | C=CCCC [1-pentene] + CCCCCCCCCCCCCC[P+](CCCCCC)(CCCCCC)CCCCCC.O=S(=O)([N-]S(=O)(=O)C(F)(F)F)C(F)(F)F | 0.78 ± 0.05 | 0.8 ± 0.05 | 0.82 ± 0.05 | 0.85 ± 0.05
6 | c1ccccc1 [benzene] + CCCCCCCCCCCCCC[P+](CCCCCC)(CCCCCC)CCCCCC.O=S(=O)([N-]S(=O)(=O)C(F)(F)F)C(F)(F)F | 0.38 ± 0.03 | 0.39 ± 0.03 | 0.4 ± 0.03 | 0.42 ± 0.04
7 | C1CCCCCC1 [cycloheptane] + CCCCCCCCCCCCCC[P+](CCCCCC)(CCCCCC)CCCCCC.O=S(=O)([N-]S(=O)(=O)C(F)(F)F)C(F)(F)F | 0.88 ± 0.06 | 0.91 ± 0.06 | 0.92 ± 0.06 | 0.94 ± 0.06
8 | C1CCCCC1 [cyclohexane] + CCCCCCCCCCCCCC[P+](CCCCCC)(CCCCCC)CCCCCC.O=S(=O)([N-]S(=O)(=O)C(F)(F)F)C(F)(F)F | 0.78 ± 0.05 | 0.8 ± 0.05 | 0.82 ± 0.05 | 0.85 ± 0.05
9 | C1CCCC1 [cyclopentane] + CCCCCCCCCCCCCC[P+](CCCCCC)(CCCCCC)CCCCCC.O=S(=O)([N-]S(=O)(=O)C(F)(F)F)C(F)(F)F | 0.68 ± 0.05 | 0.69 ± 0.05 | 0.71 ± 0.05 | 0.73 ± 0.05
10 | CCO [ethanol] + CCCCCCCCCCCCCC[P+](CCCCCC)(CCCCCC)CCCCCC.O=S(=O)([N-]S(=O)(=O)C(F)(F)F)C(F)(F)F | 1.36 ± 0.09 | 1.33 ± 0.09 | 1.31 ± 0.09 | 1.3 ± 0.08
11 | CCCCCCC [heptane] + CCCCCCCCCCCCCC[P+](CCCCCC)(CCCCCC)CCCCCC.O=S(=O)([N-]S(=O)(=O)C(F)(F)F)C(F)(F)F | 1.26 ± 0.08 | 1.27 ± 0.08 | 1.3 ± 0.08 | 1.33 ± 0.09
12 | C=CCCCC [hex-1-ene] + CCCCCCCCCCCCCC[P+](CCCCCC)(CCCCCC)CCCCCC.O=S(=O)([N-]S(=O)(=O)C(F)(F)F)C(F)(F)F | 0.88 ± 0.06 | 0.9 ± 0.06 | 0.92 ± 0.06 | 0.97 ± 0.06
13 | CCCCCC [hexane] + CCCCCCCCCCCCCC[P+](CCCCCC)(CCCCCC)CCCCCC.O=S(=O)([N-]S(=O)(=O)C(F)(F)F)C(F)(F)F | 1.09 ± 0.07 | 1.1 ± 0.07 | 1.13 ± 0.07 | 1.17 ± 0.07
14 | CO [methanol] + CCCCCCCCCCCCCC[P+](CCCCCC)(CCCCCC)CCCCCC.O=S(=O)([N-]S(=O)(=O)C(F)(F)F)C(F)(F)F | 1.26 ± 0.08 | 1.24 ± 0.08 | 1.23 ± 0.08 | 1.23 ± 0.08
15 | C=CCCCCCC [oct-1-ene] + CCCCCCCCCCCCCC[P+](CCCCCC)(CCCCCC)CCCCCC.O=S(=O)([N-]S(=O)(=O)C(F)(F)F)C(F)(F)F | 1.11 ± 0.07 | 1.14 ± 0.07 | 1.16 ± 0.07 | 1.21 ± 0.08
16 | CCCCCCCC [octane] + CCCCCCCCCCCCCC[P+](CCCCCC)(CCCCCC)CCCCCC.O=S(=O)([N-]S(=O)(=O)C(F)(F)F)C(F)(F)F | 1.32 ± 0.09 | 1.36 ± 0.09 | 1.4 ± 0.09 | 1.46 ± 0.1
17 | CCCCC [pentane] + CCCCCCCCCCCCCC[P+](CCCCCC)(CCCCCC)CCCCCC.O=S(=O)([N-]S(=O)(=O)C(F)(F)F)C(F)(F)F | 0.94 ± 0.06 | 0.96 ± 0.06 | 0.99 ± 0.06 | 1.02 ± 0.06
18 | CCCO [propan-1-ol] + CCCCCCCCCCCCCC[P+](CCCCCC)(CCCCCC)CCCCCC.O=S(=O)([N-]S(=O)(=O)C(F)(F)F)C(F)(F)F | 1.42 ± 0.09 | 1.4 ± 0.09 | 1.39 ± 0.09 | 1.38 ± 0.09
